# Measured values reported in US9238637B2, “Stable polymorphic forms of compound as hypoxia mimetics, and uses thereof” (BEIJING BETTA PHARMACEUTICALS CO., LTD, priority 2011, dated 2016).
# How the values were obtained:
# [1] = test system: Erythropoietin (EPO); assay: Determination of erythropoietin (EPO) induction in normal mice; type: in vivo; conditions: male C57BL/6 mice, oral suspension in 0.5% CMC, 60 mg/kg, serum 6 hours after dosing
# Procedure: Eight-week-old male C57BL/6 mice were dosed orally with a suspension of one crystal form of the compound in 0.5% CMC at 20, 60 and 100 mg/kg. Blood samples were obtained from the orbital venous plexus 6 hours after dosing and serum was collected (see also, Robinson A, et al., Gastroenterology. 2008, 134:145-55; Hsieh M M, et al., Blood. 2007, 110:2140-7). Samples were analyzed for EPO by electrochemiluminescence-based immunoassay (MSD) according to manufacturer's instructions. The inducted EPO when the Crystalline Form III in this invention was used in suspension was determined to be above 35 folds over that of the vehicle group without induction at the dosage of 60 mg/kg.
# [2] = test system: adenine-induced renal anemic rats; assay: Efficacy studies in adenine-induced renal anemic rats; type: in vivo, Wistar rats
# Procedure: Six-week-old male Wistar rats were divided to the control group and treatment groups. After given the standard chow for 10 days, the control group continued on the standard chow while the treatment groups were given the standard chow with the addition of 0.75% adenine for 30 days when the treatment groups developed anemia. All the groups were then switched back to the standard chow, and the treatment groups were dosed orally with vehicle or a suspension of one crystal form of the compound in 0.5% CMC-Na at 20, 40 or 80 mg/kg once a day for 4 weeks. Blood samples were obtained from the orbital venous plexus on days 0, 5, 12, 19 and 27. An Automated Hematology Analyzer MEK-6318K was used to determine hematological parameters such as erythrocyte counts (RBC), hemoglobin concentration (HGB), hematocrit value (HCT).
# [3] = Stability determination of crystal forms (slurry in ethyl acetate, XRPD); type: physicochemical; conditions: 72 hrs
# Procedure: (§1) 100 mg of the compound of Formula I prepared from the method disclosed in Example 1 above (mixed crystal forms) was added into 2 mL of Ethyl Acetate and stirred at room temperature for 72 hrs. After centrifugation and drying, the resulted crystal form was determined by XRPD to be purely the Crystalline Form III.
# as §1, with “50 mg” for “100 mg”, “into 1” for “into 2”, “at 50° C.” for “at room temperature”
# [4] = target: T1, full length PHD2 (Homo sapiens, UniProt Q9GZT9); assay: Assay of HIF-PHD2 enzyme activity (homogeneous TR-FRET); type: biochemical; conditions: 600 nM full length PHD2, 0.2 μM 2-oxoglutarate, 0.5 μM HIF-1α peptide, 2 hrs room temperature
# T1 construct: containing 600 nM full length PHD2
# Procedure: HIF-PHD2 activity was measured using homogeneous TR-FRET technology (see also, US2008/004817; Dao J H et al., Anal Biochem. 2009, 384:213-23). To each well of a ½Area 96-well plate was added 2 μL DMSO solution of test compound and 40 μL of assay buffer (50 mM Tris PH7.4/0.01% Tween-20/0.1 mg/ml BSA/1 mM Sodium ascorbate/20 μg/ml Catalase/10 μM FeSO4) containing 600 nM full length PHD2. After a 30 min preincubation at room temperature, the enzymatic reactions were initiated by the addition of 8 μL of substrates (final concentrations of 0.2 μM 2-oxoglutarate and 0.5 μM HIF-1α peptide biotinyl-DLDLEMLAPYIPMDDDFQL). After 2 hrs. at room temperature, the reactions were terminated and signals were developed by the addition of a 50 μL quench/detection mix to a final concentration of 1 mM ortho-phenanthroline, 0.1 mM EDTA, 0.5 nM anti-(His)6LANCE reagent, 100 nM AF647-labeled Streptavidin, and 30 nM (His)6-VHL-elonginB-elonginC complex. The ratio of time resolved fluorescence signals at 665 and 620 nm was determined, and percent inhibition was calculated relative to an uninhibited control sample run in parallel.
# T1 sequence (Q9GZT9 whole entry, species assumed): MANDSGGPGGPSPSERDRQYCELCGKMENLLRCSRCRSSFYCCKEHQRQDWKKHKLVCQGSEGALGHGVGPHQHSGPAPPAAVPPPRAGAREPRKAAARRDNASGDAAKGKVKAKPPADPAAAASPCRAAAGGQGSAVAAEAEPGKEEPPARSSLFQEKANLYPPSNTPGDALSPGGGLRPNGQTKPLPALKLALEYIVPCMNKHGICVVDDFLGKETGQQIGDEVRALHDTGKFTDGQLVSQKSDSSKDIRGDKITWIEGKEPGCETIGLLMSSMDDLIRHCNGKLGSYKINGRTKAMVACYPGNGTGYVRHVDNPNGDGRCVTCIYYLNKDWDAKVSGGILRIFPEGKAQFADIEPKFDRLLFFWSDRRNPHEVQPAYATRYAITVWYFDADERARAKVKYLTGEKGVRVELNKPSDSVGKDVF
IC50 [4] [nM],Structure (SMILES),inducted EPO over that of the vehicle group [1],"HGB ([2]; 20 mg/kg oral once a day, Day 0) [g/L]","HGB ([2]; 20 mg/kg oral once a day, Day 5) [g/L]","HGB ([2]; 20 mg/kg oral once a day, Day 12) [g/L]","HGB ([2]; 20 mg/kg oral once a day, Day 19) [g/L]","HGB ([2]; 20 mg/kg oral once a day, Day 27) [g/L]","HGB ([2]; 40 mg/kg oral once a day, Day 0) [g/L]","HGB ([2]; 40 mg/kg oral once a day, Day 5) [g/L]","HGB ([2]; 40 mg/kg oral once a day, Day 12) [g/L]","HGB ([2]; 40 mg/kg oral once a day, Day 19) [g/L]","HGB ([2]; 40 mg/kg oral once a day, Day 27) [g/L]","HGB ([2]; 80 mg/kg oral once a day, Day 0) [g/L]","HGB ([2]; 80 mg/kg oral once a day, Day 5) [g/L]","HGB ([2]; 80 mg/kg oral once a day, Day 12) [g/L]","HGB ([2]; 80 mg/kg oral once a day, Day 19) [g/L]","HGB ([2]; 80 mg/kg oral once a day, Day 27) [g/L]","effect on HGB levels (in words) ([2]; 20, 40 or 80 mg/kg oral once a day for 4 weeks)",thermodynamic stability of crystal form ([3]; 50° C.),thermodynamic stability of crystal form ([3]; room temperature)
,"Cc1cccc(-c2cccc3c(O)c(C(=O)NCC(=O)O)c(=O)oc23)c1 [Crystalline Form III, N-[(4-hydroxy-2-oxo-8-(3-methyl-phenyl)-2H-3-coloralkenyl)carbonyl]glycine]",above 35 folds,88.0,60.7,64.3,73.3,90.7,87.4,69.4,87.2,89.7,103.6,86.8,76.7,111.0,122.0,139.0,improved the HGB levels in the animals and corrected them toward normal,thermodynamically the more stable crystal form,thermodynamically the more stable crystal form
~150,"Cc1cccc(-c2cccc3c(O)c(C(=O)NCC(=O)O)c(=O)oc23)c1 [compound of Formula I, N-[(4-hydroxy-2-oxo-8-(3-methyl-phenyl)-2H-3-coloralkenyl)carbonyl]glycine]",,,,,,,,,,,,,,,,,,,
